These results are taken from US8383581B2, “Short-chain peptides as parathyroid hormone (PTH) receptor agonist” (Cadila Healthcare Limited, priority 2009, dated 2013).

Holding throughout (type): in vitro ADME
The nature of data set [1]: Stability of peptides in human plasma. As to conditions: human, plasma; for metabolised at 24 h, 2 μM: pH 7.8. How it is done:
(§1) b) Stability of Peptides in Human Plasma, Simulated Gastric Fluid, Intestinal Fluid and Liver Microsomes (Ex-Vivo): Different short-chain peptides (final concentration 2 μM) were incubated with either pooled human plasma (7.5 μL) or simulated gastric fluid (pH 1.5; composition HCl, NaCl and Pepsin) or simulated intestinal fluid (pH 7.5) or human liver microsomes, for 0, 2, 4, 6, 12 and 24 h (37° C.; 50 mM triethanolamine-HCl buffer; pH 7.8). Concentrations of human plasma/simulated gastric fluid/simulated intestinal fluid/human liver microsomes were selected in preliminary experiments to provide degradation of approximately 50% of PTH(1-34) within 1 h, therefore allowing time-dependent degradation to be viewed over 24 h. Reactions were terminated by the addition of TFA/H2O ([…], 10% (v/v)). The reaction products were then applied to a Vydac C18 analytical column (4.6×250-mm) and the major degradation fragment separated from intact short-chain peptides. The column was equilibrated with TFA/H20, at a flow rate of 1 mL/min. Using 0.1% (v/v) TFA in 70% acetonitrile/H2O, the concentration of acetonitrile in the eluting solvent was raised from 0% to 28% over 10 min and from 28% to 42% over 30 min. The absorbance was monitored at 206 nm using UV detector and peaks were collected manually prior to ESI-MS analysis. Area under the curve was measured for test peptides and their metabolites and percentage degradation were calculated at each time point over a period of 24 h. Stability study results of selected peptides, in human plasma, simulated gastric fluid, intestinal fluid and liver microsomes (in vitro) are listed in Table 4.

A short description of data set [2]: Stability of peptides in simulated gastric fluid (pH 1.5; HCl, NaCl and Pepsin). To be noted: pH 1.5; for % degradation of peptides in 24 h when incubated with simulated gastric fluid: 2 μM; for half-life: simulated gi fluid. How it is done:
as §1

Data set [3] in a line: Stability of peptides in simulated intestinal fluid (pH 7.5). To be noted: pH 7.5; for half-life: simulated gi fluid; for % degradation of peptides in 24 h when incubated with simulated intestinal fluid: 2 μM. How it is done:
as §1

A short description of data set [4]: Stability of peptides in human liver microsomes. As to conditions: human, microsomes; for % degradation of peptides in 24 h when incubated with liver microsomes: 2 μM, pH 7.8. As to the method: as §1

The structures appear in SMILES notation. Where a SMILES comes first, the peptide text is derived from it. [ ]: non-standard residue; d: D form. ξ: configuration not given here. ξαMeBip(2'-Et,4'-OMe) = CCc1cc(OC)ccc1-c1ccc(CC(C)(N)C(=O)O)cc1; ξBip(2'-Et-4'-OMe) = CCc1cc(OC)ccc1-c1ccc(CC(N)C(=O)O)cc1; Arg(NO2) = N=C(NCCC[C@H](N)C(=O)O)N[N+](=O)[O-]; ξαMePhe(2,6-F2) = CC(N)(Cc1c(F)cccc1F)C(=O)O; ξαMePhe(2-F) = CC(N)(Cc1ccccc1F)C(=O)O; hhPhe = N[C@@H](CCCc1ccccc1)C(=O)O; hArg = N=C(N)NCCCC[C@H](N)C(=O)O; Nle = CCCC[C@H](N)C(=O)O; Ac3c = NC1(C(=O)O)CC1; Aib = CC(C)(N)C(=O)O

For the compound `CCCC[C@H](NC(=O)C(C)(Cc1c(F)cccc1F)NC(=O)[C@H](CCC(N)=O)NC(=O)[C@@H](NC(=O)[C@H](CCC(=O)O)NC(=O)C(C)(C)NC(=O)[C@@H](NC(=O)C(C)(C)N)C(C)C)[C@@H](C)CC)C(=O)N[C@@H](Cc1c[nH]cn1)C(=O)N[C@@H](CCC(N)=O)C(=O)NC(C)(Cc1c(F)cccc1F)C(=O)N[C@@H](C)C(=O)NC(C)(Cc1c(F)cccc1F)C(=O)NC(Cc1ccc(-c2ccc(OC)cc2CC)cc1)C(=O)N[C@@H](CCCc1ccccc1)C(N)=O` (stereo partly drawn) [Seq. ID. 880] (H-[Aib]V[Aib]EIQ[ξαMePhe(2,6-F2)][Nle]HQ[ξαMePhe(2,6-F2)]A[ξαMePhe(2,6-F2)][ξBip(2'-Et-4'-OMe)][hhPhe]-NH2), in data set [1], the half-life is over 24 h and the metabolised at 24 h, 2 μM was found to be 0%. Moreover, in data set [2], the “% degradation of peptides in 24 h when incubated with simulated gastric fluid” value (from here on “% degradation … with simulated gastric fluid”) is 00% and the half-life was over 24 h. Further, in data set [3], the half-life is over 24 h and the “% degradation of peptides in 24 h when incubated with simulated intestinal fluid” value (shortened to “% degradation … with simulated intestinal fluid”) is reported as 00%. Also, in data set [4], the “half-life (t1/2) in liver microsomes” value is reported as “(5) h” and the “% degradation of peptides in 24 h when incubated with liver microsomes” value (shortened to “% degradation … with liver microsomes”) came to 31%.

In data set [1], `CCc1cc(OC)ccc1-c1ccc(CC(C)(NC(=O)[C@H](CCCCNC(=N)N)NC(=O)[C@H](C)NC(=O)[C@H](CCCCNC(=N)N)NC(=O)[C@H](CCC(N)=O)NC(=O)[C@H](Cc2c[nH]cn2)NC(=O)[C@H](CCSC)NC(=O)[C@H](CC(C)C)NC(=O)[C@H](CCC(N)=O)NC(=O)[C@@H](NC(=O)[C@H](CCC(=O)O)NC(=O)C(C)(C)NC(=O)[C@@H](NC(=O)C(C)(C)N)C(C)C)[C@@H](C)CC)C(=O)N[C@@H](CCCc2ccccc2)C(N)=O)cc1` (stereo partly drawn) [Seq. ID. 898] (H-[Aib]V[Aib]EIQLMHQ[hArg]A[hArg][ξαMeBip(2'-Et,4'-OMe)][hhPhe]-NH2) displayed a half-life of over 24 h and a metabolised at 24 h, 2 μM of 0%. Besides, in data set [2], the “% degradation … with simulated gastric fluid” value is listed as 00% and the half-life is over 24 h. Also, in data set [3], the half-life was over 24 h and the “% degradation … with simulated intestinal fluid” value is 00%. In data set [4], the “half-life (t1/2) in liver microsomes” value was “(5) h” and the “% degradation … with liver microsomes” value is on record as 26%.

On to `CCCC[C@H](NC(=O)C(C)(Cc1c(F)cccc1F)NC(=O)[C@H](CCC(N)=O)NC(=O)[C@@H](NC(=O)[C@H](CCC(=O)O)NC(=O)C1(NC(=O)[C@@H](NC(=O)C(C)(C)N)C(C)C)CC1)[C@@H](C)CC)C(=O)N[C@@H](Cc1c[nH]cn1)C(=O)N[C@@H](CCC(N)=O)C(=O)N[C@@H](CCCCNC(=N)N)C(=O)N[C@@H](C)C(=O)N[C@@H](CCCNC(=N)N[N+](=O)[O-])C(=O)NC(C)(Cc1ccccc1F)C(=O)N[C@@H](CCCc1ccccc1)C(N)=O` (stereo partly drawn) [Seq. ID. 720] (H-[Aib]V[Ac3c]EIQ[ξαMePhe(2,6-F2)][Nle]HQ[hArg]A[Arg(NO2)][ξαMePhe(2-F)][hhPhe]-NH2), for which, in data set [1], the half-life was over 20 h and the metabolised at 24 h, 2 μM was 10%. Further, in data set [2], the “% degradation … with simulated gastric fluid” value is given as 50% and the half-life was 4 h. For the same compound, in data set [3], the half-life was over 24 h and the “% degradation … with simulated intestinal fluid” value is listed as 00%. In data set [4], the half-life was determined as 2 h and the “% degradation … with liver microsomes” value stood at 86%.
